Test results: patent US12077503B2, “Substituted cyclic amides and their use as herbicides” (FMC CORPORATION, priority 2015, dated 2024)

Legend:
Assay type in all cases: in vivo
[1] = system: sedge, umbrella (small-flower umbrella sedge, Cyperus difformis); assay: Test B flooded paddy test; conditions: Cyperus difformis, 250 g ai/ha, Flood; 0 to 100 scale where 0 is no effect and 100 is complete control; read-out: Sedge, Umbrella plant response rating
In short: (§1)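 Visual ratings (0 none to 100 complete control) are relative to untreated plants, taken 13–15 d after treatment in a greenhouse. Test material went straight into floodwater standing 3 cm above the soil, kept constant, on plants at the 2-leaf stage.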

[2] = system: barnyardgrass (Echinochloa crus-galli); assay: Test B flooded paddy test; conditions: Echinochloa crus-galli, 250 g ai/ha, Flood; 0 to 100 scale where 0 is no effect and 100 is complete control; read-out: Barnyardgrass plant response rating
In short: as §1

[3] = system: ducksalad (Heteranthera limosa); assay: Test B flooded paddy test; conditions: Heteranthera limosa, 250 g ai/ha, Flood; 0 to 100 scale where 0 is no effect and 100 is complete control; read-out: Ducksalad plant response rating
In short: as §1

[4] = system: rice (Oryra sativa); assay: Test B flooded paddy test; conditions: Oryza sativa, 250 g ai/ha, Flood; 0 to 100 scale where 0 is no effect and 100 is complete control; read-out: Rice plant response rating
In short: as §1

[5] = system: giant foxtail (Setaria faberii); assay: Test A preemergence; conditions: Setaria faberi, pre-emergence, 240 h, 0 to 100 scale where 0 is no effect and 100 is complete control, read-out: Foxtail, Giant plant response rating
In short: (§2)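 Visual injury scores from 0, no effect, to 100, complete control, were assigned versus untreated controls roughly 10 d after treatment in the greenhouse. Test chemicals, formulated with surfactant in a non-phytotoxic solvent, were applied to planted seeds as a preemergence soil spray or postemergence to one- to two-leaf plants 2 to 10 cm tall, in loam–sand soil.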

[6] = system: ryegrass, Italian (Italian ryegrass, Lolium multiflorum); assay: Test A preemergence; conditions: Lolium multiflorum, pre-emergence, 240 h, 0 to 100 scale where 0 is no effect and 100 is complete control, read-out: Ryegrass, Italian plant response rating
In short: as §2

[7] = system: pigweed (Amaranthus retroflexus); assay: Test A preemergence; conditions: Amaranthus retroflexus, pre-emergence, 240 h, 0 to 100 scale where 0 is no effect and 100 is complete control, read-out: Pigweed plant response rating
[8] = system: ragweed (common ragweed, Ambrosia elatior); assay: Test A preemergence; conditions: Ambrosia artemisiifolia, pre-emergence, 240 h, 0 to 100 scale where 0 is no effect and 100 is complete control, read-out: Ragweed plant response rating
In short: as §2

[9] = system: barnyardgrass (Echinochloa crus-galli); assay: Test A preemergence; conditions: Echinochloa crus-galli, pre-emergence, 240 h, 0 to 100 scale where 0 is no effect and 100 is complete control, read-out: Barnyardgrass plant response rating
In short: as §2

[10] = system: Kochia (Kochia scoparia); assay: Test A preemergence; conditions: Bassia scoparia, pre-emergence, 240 h, 31 g ai/ha, Preemergence; 0 to 100 scale where 0 is no effect and 100 is complete control; read-out: Kochia plant response rating
In short: as §2

[11] = system: wheat (Triticum aestivum); assay: Test A postemergence; conditions: Triticum aestivum, post-emergence, 240 h
In short: as §2

[12] = system: corn (Zea mays); assay: Test A postemergence; conditions: Zea mays, post-emergence, 240 h
In short: as §2

[13] = system: giant foxtail (Setaria faberii); assay: Test A postemergence; conditions: Setaria faberi, post-emergence, 240 h
In short: as §2

[14] = system: ryegrass, Italian (Italian ryegrass, Lolium multiflorum); assay: Test A postemergence; conditions: Lolium multiflorum, post-emergence, 240 h
In short: as §2

[15] = system: pigweed (Amaranthus retroflexus); assay: Test A postemergence; conditions: Amaranthus retroflexus, post-emergence, 240 h
In short: as §2

[16] = system: ragweed (common ragweed, Ambrosia elatior); assay: Test A postemergence; conditions: Ambrosia artemisiifolia, post-emergence, 240 h
In short: as §2

[17] = system: blackgrass (Alopecurus myosuroides); assay: Test A postemergence; conditions: Alopecurus myosuroides, post-emergence, 240 h
In short: as §2

[18] = system: barnyardgrass (Echinochloa crus-galli); assay: Test A postemergence; conditions: Echinochloa crus-galli, post-emergence, 240 h
In short: as §2

[19] = system: Kochia (Kochia scoparia); assay: Test A postemergence; conditions: Bassia scoparia, post-emergence, 240 h, Postemergence, 31 g ai/ha; visual injury after approx. 10 d; 0 to 100 scale, 0 no effect, 100 complete control; read-out: Plant response rating, Kochia
In short: as §2

[20] = system: Galium (catchweed bedstraw, Galium aparine); assay: Test A postemergence; conditions: Galium, post-emergence, 240 h
In short: as §2

[21] = 125 g ai/ha, preemergence, approx. 10 d

Q: Which results are given for Cc1cc([C@H]2CN(C)C(=O)[C@@H]2C(=O)Nc2ccccc2C(F)(F)F)ccc1Br [Compound 1103]?
A: pest or weed control at 250 g/ha [1]: 0%; pest or weed control at 250 g/ha [2]: 75%; pest or weed control at 250 g/ha [3]: 90%; pest or weed control at 250 g/ha [4]: 25%; pest or weed control at 31 g/ha ([5]; 31 g ai/ha, Preemergence): 70%; pest or weed control at 125 g/ha [5, 21]: 90%; pest or weed control at 31 g/ha ([6]; 31 g ai/ha, Preemergence): 0%; pest or weed control at 125 g/ha [6, 21]: 0%; pest or weed control at 31 g/ha ([7]; 31 g ai/ha, Preemergence): 0%; pest or weed control at 125 g/ha [7, 21]: 0%; pest or weed control at 31 g/ha ([8]; 31 g ai/ha, Preemergence): 0%; pest or weed control at 125 g/ha [8, 21]: 20%; pest or weed control at 31 g/ha ([9]; 31 g ai/ha, Preemergence): 20%; pest or weed control at 125 g/ha [9, 21]: 70%; pest or weed control at 31 g/ha [10]: 0%; plant injury at 125 g/ha ([11]; 125 g ai/ha, postemergence, visual injury on 0 to 100 scale (0 no effect, 100 complete control), approx. 10 d, read-out: Wheat plant response rating): 20%; plant injury at 31 g/ha ([11]; Postemergence, 31 g ai/ha, visual injury after approx. 10 d, 0 to 100 scale, 0 no effect, 100 complete control, read-out: Plant response rating, Wheat): 0%; plant injury at 125 g/ha ([12]; 125 g ai/ha, postemergence, visual injury on 0 to 100 scale (0 no effect, 100 complete control), approx. 10 d, read-out: Corn plant response rating): 0%; Corn plant response rating (crop injury, 0 = no effect, 100 = complete kill) at 31 g/ha ([12]; Postemergence, 31 g ai/ha, visual injury after approx. 10 d, 0 to 100 scale, 0 no effect, 100 complete control): 0%; pest or weed control at 125 g/ha ([13]; 125 g ai/ha, postemergence, visual injury on 0 to 100 scale (0 no effect, 100 complete control), approx. 10 d, read-out: Foxtail, Giant plant response rating): 80%; pest or weed control at 31 g/ha ([13]; Postemergence, 31 g ai/ha, visual injury after approx. 10 d, 0 to 100 scale, 0 no effect, 100 complete control, read-out: Plant response rating, Foxtail, Giant): 50%; pest or weed control at 125 g/ha ([14]; 125 g ai/ha, postemergence, visual injury on 0 to 100 scale (0 no effect, 100 complete control), approx. 10 d, read-out: Ryegrass, Italian plant response rating): 20%; pest or weed control at 31 g/ha ([14]; Postemergence, 31 g ai/ha, visual injury after approx. 10 d, 0 to 100 scale, 0 no effect, 100 complete control, read-out: Plant response rating, Ryegrass, Italian): 0%; pest or weed control at 125 g/ha ([15]; 125 g ai/ha, postemergence, visual injury on 0 to 100 scale (0 no effect, 100 complete control), approx. 10 d, read-out: Pigweed plant response rating): 0%; pest or weed control at 31 g/ha ([15]; Postemergence, 31 g ai/ha, visual injury after approx. 10 d, 0 to 100 scale, 0 no effect, 100 complete control, read-out: Plant response rating, Pigweed): 0%; pest or weed control at 125 g/ha ([16]; 125 g ai/ha, postemergence, visual injury on 0 to 100 scale (0 no effect, 100 complete control), approx. 10 d, read-out: Ragweed plant response rating): 30%; pest or weed control at 31 g/ha ([16]; Postemergence, 31 g ai/ha, visual injury after approx. 10 d, 0 to 100 scale, 0 no effect, 100 complete control, read-out: Plant response rating, Ragweed): 0%; pest or weed control at 125 g/ha ([17]; 125 g ai/ha, postemergence, visual injury on 0 to 100 scale (0 no effect, 100 complete control), approx. 10 d, read-out: Blackgrass plant response rating): 30%; pest or weed control at 31 g/ha ([17]; Postemergence, 31 g ai/ha, visual injury after approx. 10 d, 0 to 100 scale, 0 no effect, 100 complete control, read-out: Plant response rating, Blackgrass): 20%; pest or weed control at 125 g/ha ([18]; 125 g ai/ha, postemergence, visual injury on 0 to 100 scale (0 no effect, 100 complete control), approx. 10 d, read-out: Barnyardgrass plant response rating): 70%; pest or weed control at 31 g/ha ([18]; Postemergence, 31 g ai/ha, visual injury after approx. 10 d, 0 to 100 scale, 0 no effect, 100 complete control, read-out: Plant response rating, Barnyardgrass): 40%; pest or weed control at 31 g/ha [19]: 0%; pest or weed control at 125 g/ha ([20]; 125 g ai/ha, postemergence, visual injury on 0 to 100 scale (0 no effect, 100 complete control), approx. 10 d, read-out: Galium plant response rating): 50%; pest or weed control at 31 g/ha ([20]; Postemergence, 31 g ai/ha, visual injury after approx. 10 d, 0 to 100 scale, 0 no effect, 100 complete control, read-out: Plant response rating, Galium): 30%
